The source of these data is patent US20250277066A1, “Substituted Pyridine-2,6-Bis(Phenylenephenolate) Complexes with Enhanced Solubility that are Useful as Catalyst Components for Olefin Polymerization” (ExxonMobil Chemical Patents Inc., priority 2022, published 2025).

This data set is described as follows: Solubility of complexes in isohexane (Method 1 or Method 2). As to conditions: ambient temperature (20° C.-25° C.), mass includes residual solvent. The data set is classed as physicochemical. The protocol: Solubility studies for all other complexes were performed using material as synthesized. […] Solvents used were sparged with nitrogen (30-60 minutes) and dried over 3 Å mole sieves. Unless stated otherwise all measurements were performed at ambient temperature (20° C.-25° C.).
General procedure: Solubility was determined using the following Method 1 or Method 2. For calculations, a value of 0.672 g/mL was used for the density of isohexane.
Method 1: A tared vial was loaded with a small amount of the complex (actual mass recorded, including any residual solvent as noted above, typically 5-30 mg). Then a small stir bar (8 mm) was added. Solvent was then added and the mixture was stirred rapidly (1000 rpm). […] This process was repeated until either a clear solution was obtained (no visible solids or murkiness) or the vial was full. As the mixture approached homogeneity (i.e., few remaining solids observed) the volume of the solvent additions was kept small (<1 mL) to minimize excess beyond the solvent required to achieve homogeneity. The stir bar was then removed and the mass of the mixture was measured. If a clear solution had formed then the solubility of the complex was calculated as a single value, based on the mass of complex and the amount of solvent added to achieve a homogeneous solution. If the mixture remained heterogeneous (visible solids or murky), then the value reported is given as being “less than” the calculated value.
Method 2: A measured amount of complex (actual mass recorded, including any residual solvent as noted above) was added to a tared vial, followed by a stir bar. Dry isohexanes were added in small portions and the resulting mixture was stirred after each portion of isohexanes. If a clear solution had formed then the solubility was reported as a range, the lower bound of solubility calculated using the total solvent added to achieve a homogenous solution and the upper bound of solubility calculated using the total solvent measured prior to achieving a homogenous solution. If the mixture remained heterogeneous (visible solids or murky), the upper bound of solubility was calculated using the total solvent added. Formula used to calculate solubility are listed below. Solvent present in the complex is included in the mass and formula weight of the complexes.

Consider `CC(C)(C)c1cc2c(c(C34CC5CC(CC(C5)C3)C4)c1)[O][Zr-]1([CH3])([CH3])[O]c3c(cc(C(C)(C)C)cc3C34CC5CC(CC(C5)C3)C4)-c3ccccc3-c3cccc([n+]31)-c1ccccc1-2` [Complex 2], for which the “Solubility (s) in Isohexane (wt %)” value was 0.081 wt %.

For `Cc1cc2[n+]3c(c1)-c1ccccc1-c1cc(C(C)(C)C)cc(C45CC6CC(CC(C6)C4)C5)c1[O][Zr-]3([CH3])([CH3])[O]c1c(cc(C(C)(C)C)cc1C13CC4CC(CC(C4)C1)C3)-c1ccccc1-2` [Complex 3], the “Solubility (s) in Isohexane” value is listed as less than 3.2 mM and the “Solubility (s) in Isohexane (wt %)” value is less than 0.5 wt %.
